Experimental data reported in patent publication US20260200923A1, “HETEROCYCLIC COMPOUNDS TARGETING THE NUDT5 PROTEIN” (Oxford University Innovation Limited, priority 2022, published 2026).

Experiments:
Type in all cases: cell-based
NUDT5-PPAT interaction = biological target: T1, NUDT5-PPAT interaction (Homo sapiens, UniProt Q9UKK9); experiment: immunoprecipitation of endogenous PPAT; settings: HAP1 cells, 100 nM, 20 h
T1 construct: endogenous in cells; host or cells: HAP1 WT
Protocol: For detecting TH5427 interactors and the PPAT-NUDT5 interaction, protein samples were prepared using RIPA buffer containing benzonase (E1014-25KU, Sigma-Aldrich). Protein concentration was measured by DC assay (U.S. Pat. Nos. 5,000,113, 5,000,114, 5,000,115, Biorad). 30 μg protein out of each sample was separated on a SDS-page gel (3450125, Biorad) and transferred to a nitrocellulose membrane (10600014, Sigma-Aldrich) at 0.4 A for 1 h. The membranes were blocked by 5% BLOT-QuickBlocker in PBS-T at room temperature for 1 h (786-011, Bioscience) and incubated with primary antibodies at 4° C. overnight. Then, fluorophor conjugated secondary antibodies diluted 1:500 in 2×BLOT-QuickBlocker in PBS-T were added onto the membrane for 1 h at room temperature. Protein bands were visualized by a Odyssey® DLx Imaging System (Licor). The following primary antibodies were used: NUDT5 (ab129172, Abeam, 1:1000, anti-rabbit) or NUDT5 (sc-398644, 1:200, anti-mouse), β-actin (sc-69879, Santa Cruz Biotechnology, 1:200) and PPAT (15401-1-AP, Proteintech, 1:1000). The following secondary antibodies were used: Alexa Fluor 750 goat anti-mouse IgG (A21037, Life technologies) and goat anti-rabbit IgG (H+L) cross-adsorbed secondary Antibody, Alexa Fluor 647 (A21244, Life technologies).
HAP-1 WT cells were treated with 100 nM TH5427, dNUDT5 or DMSO for 20 h in a 100 mm dish. […]

[1] = tested on: patient-derived fibroblast lines with MTHFD1 mutations; experiment: adenosine toxicity in fibroblasts from MTHFD1 deficiency patients; settings: patient-derived cells
Protocol: Patient-derived fibroblast and control fibroblast lines were cultured in Minimum Essential Medium alpha media (MEMα, no nucleosides, Gibco), supplemented with 10% FBS and 1% P/S. These patient-derived fibroblast lines were previously characterized in Burda et al. 2015. For the experiments using dialyzed FBS, the dialyzed FBS was purchased from Gibco and added to IMDM at a final concentration of 10%. All the cell lines were incubated in 5% CO2 atmosphere at 37° C.

NUDT5 = NUDT5 (Homo sapiens, UniProt Q9UKK9); experiment: NUDT5 degradation by Western blot in HAP-1 cells; set-up: endogenous in cells
Protocol: For Western blots, proteins were separated on polyacrylamide gels with SDS running buffer (50 mM Tris, 380 mM Glycine, 7 mM SDS) and transferred to PVDF membranes. All membranes were then blocked with blocking buffer (5% w/v milk powder, BioRad) in TBST (50 mM Tris (tris(hydroxymethylaminomethane), 150 mM NaCl, 0.05% (v/v) Tween 20, adjusted to pH 7.6) Proteins were probed with antibodies against phospho-AMPK (50081S, 1:2000, Cell Signaling Technologies), AMPK (5832S, 1:2000, Cell Signaling Technologies), PML (ab179466, 1:1000, abeam), PARP8 (NBP213733, 1:1000, Novus Biologicals), ATF2/7 (82870, 1:1000, Cell Signaling Technologies), alpha-Tubulin (ab7291, 1:1000, Abeam), phospho-UBTF (ab182583, 1:1000, abeam), UBTF (HPA006385, 1:1000, Sigma), RBM38 (AV40862, 1:1000, Sigma), or NUDT5 (ab129172, 1:1000, abeam), detected by HRP (horse-radish peroxidase) conjugated donkey anti-rabbit IgG antibody (Pierce) or donkey anti-mouse antibody IgG antibody (Pierce) and visualized with Clarity ECL Western Blotting substrate (BioRad), according to provided protocol.

NUDT5-CRBN interaction = biological target: T2, NUDT5-CRBN interaction (Homo sapiens, UniProt Q96SW2+Q9UKK9); experiment: NanoBRET ternary complex formation (protein-protein interaction) assay; settings: HEK293 cells, 4 h
T2 construct: expressed in transfected cells; host or cells: HEK293
Protocol: For NanoBRET protein-protein interaction assay, NanoBRET Nano-Glo Detection System (N1662, Promega) was used according to the manufacturer's instruction. In brief, 220,000 HEK293 cells/ml was seeded in a 6-well plate. After 6 h, N-terminal nanoLuc NUDT5 and Halo-tag CRBN were then transfected into the cells using Fugene HD transfection reagent (E2312, Promega). The transfected HEK293 (220,000 cells/ml) were then replated onto a 384-well plate containing compounds. After 4 h incubation, NanoLuc substrate was added into each well and the signals were measured by PHERAstar Microplate Reader.
Compounds were dispensed in the 384-well plates by using Echo Acoustic Dispenser.

## Cn1c(=O)c2c(nc(N3CCN(C(=O)N4CCC(CN5CCN(c6ccc7c(c6)C(=O)N(C6CCC(=O)NC6=O)C7=O)CC5)CC4)CC3)n2Cc2nnc(-c3ccc(Cl)c(Cl)c3)o2)n(C)c1=O (stereo not drawn) [dNUDT5, 7-((5-(3,4-dichlorophenyl)-1,3,4-oxadiazol-2-yl)methyl)-8-(4-(4-((4-(2-(2,6-dioxopiperidin-3-yl)-1,3-dioxoisoindolin-5-yl)piperazin-1-yl)methyl)piperidine-1-carbonyl)piperazin-l-yl)-1,3-dimethyl-3,7-dihydro-1H-purine-2,6-dione]
NUDT5-PPAT interaction
  amount of NUDT5 interacting with PPAT: strongly reduced the amount of NUDT5 interacting with PPAT
[1]
  effect on adenosine-mediated toxicity: reverses adenosine-mediated toxicity
NUDT5
  DC50: 0.3 nM
NUDT5-CRBN interaction
  ternary complex formation between NUDT5 and CRBN: able to induce proficient ternary complex formation
